From ChEMBL document CHEMBL5233220, “A review of currently identified small molecule modulators of microRNA function” (Eur J Med Chem, 2020) come the findings set out here.

Several values for one entry are separate records, joined by “and”; a condition that tells them apart may be missing. Identical values can stand only once.

The nature of assay [1]: Binding affinity to pre-miR-373 (unknown origin) assessed as dissociation constant.
Assay [2] can be described thus: Inhibition of pre-miR-373 (unknown origin) by FRET assay.
The nature of assay [3]: Inhibition of pre-miR-373 (unknown origin) at 250 uM by FRET assay relative to control.
Assay [4] is described as follows: Inhibition of pre-miR-372 (unknown origin) by FRET assay.
Assay [5] has as its system HeLa. Kind of assay: Inhibition of miR-21 in human HeLa cells by qRT-PCR assay relative to control. It counts as cell-based. The settings on record: dose or concentration not given here. On the technique in general: Quantitative PCR measures a nucleic acid by following its amplification.
Assay [6] in a line: Inhibition of miR-21 in human HeLa cells by luciferase assay. It counts as cell-based.
For assay [7], the system named is HeLa. Kind of assay: Inhibition of pre-miR-21 in human HeLa cells by qRT-PCR assay relative to control. To be noted: dose or concentration not given here. It counts as cell-based.
Assay [8] is described as follows: Binding affinity to miR-18a (unknown origin) assessed as dissociation constant.
Assay [9] can be described thus: Binding affinity to miR-96 (unknown origin) assessed as dissociation constant. Also noted: species or system Homo sapiens.
Assay [10] in a line: Inhibition of miR-18a (unknown origin) […] by qRT-PCR analysis.
Assay [11] in a line: Inhibition of miR-96 (unknown origin). Also noted: species or system Homo sapiens.
Assay [12] in a line: Inhibition of miR-122 (unknown origin) by luciferase assay.
The nature of assay [13]: Inhibition of miR-122 (unknown origin) assessed as relative light unit by luciferase assay.
In another assay the test system is Huh-7. As to the kind of experiment: Inhibition of miR-122 in human Huh-7 cells relative to control. To be noted: dose or concentration not given here. It counts as cell-based.
Assay [14] is described as follows: Binding affinity to miR-10b (unknown origin) assessed as dissociation constant.
Assay [15] deals with HeLa. As to the kind of experiment: Inhibition of miR-10b maturation in human HeLa cells at 100 uM by luciferase assay relative to control. The class given is cell-based.
Assay [16] concerns HeLa. Kind of assay: Inhibition of pre-miR-10b maturation in human HeLa cells at 100 uM by luciferase assay relative to control. The class given is cell-based.
Assay [17] can be described thus: Binding affinity to miR-27a (unknown origin) assessed as dissociation constant by FP assay.
Assay [18] is described as follows: Inhibition of miR-27a (unknown origin) maturation at 5 uM relative to control.
The nature of assay [19]: Binding affinity to pre-miR-21 (unknown origin) at A bulge assessed as dissociation constant by dicer assay.
A short description of assay [20]: Inhibition of pre-miR-21 (unknown origin).
Assay [21] in a line: Binding affinity to pre-miR-21 (unknown origin) at U bulge assessed as dissociation constant by dicer assay.
A short description of assay [22]: Inhibition of pre-miR-21 (unknown origin) at 5 uM by FP assay relative to control.
A short description of assay [23]: Activation of miR-122 (unknown origin) assessed as relative light unit by luciferase assay. The settings on record: filed as activator.
Assay [24] is described as follows: Activation of miR-122 (unknown origin) by luciferase assay.
Assay [25] is described as follows: Binding affinity to pre-miR-21 (unknown origin) assessed as dissociation constant by fluorescence-based assay.
Assay [26] can be described thus: Binding affinity to pre-miR-21 (unknown origin) assessed as dissociation constant.
Assay [27] concerns HeLa. As to the kind of experiment: Inhibition of miR-96 maturation in human HeLa cells at 40 uM by luciferase assay relative to control. The class given is cell-based.
The subject of the next assay is MCF7. Kind of assay: Inhibition of miR-122 in human MCF7 cells relative to control. The settings on record: dose or concentration not given here. The class given is cell-based.
Assay [28] in a line: Inhibition of pre-miR-372 (unknown origin).
The nature of assay [29]: Inhibition of human topoisomerase 2.
In another assay the target is Protein argonaute-2 (Homo sapiens, UniProt Q9UKV8). As to the kind of experiment: Binding affinity to AGO2 (unknown origin) assessed as dissociation constant by RIP assay.
Protein argonaute-2, sequence (Q9UKV8 whole entry): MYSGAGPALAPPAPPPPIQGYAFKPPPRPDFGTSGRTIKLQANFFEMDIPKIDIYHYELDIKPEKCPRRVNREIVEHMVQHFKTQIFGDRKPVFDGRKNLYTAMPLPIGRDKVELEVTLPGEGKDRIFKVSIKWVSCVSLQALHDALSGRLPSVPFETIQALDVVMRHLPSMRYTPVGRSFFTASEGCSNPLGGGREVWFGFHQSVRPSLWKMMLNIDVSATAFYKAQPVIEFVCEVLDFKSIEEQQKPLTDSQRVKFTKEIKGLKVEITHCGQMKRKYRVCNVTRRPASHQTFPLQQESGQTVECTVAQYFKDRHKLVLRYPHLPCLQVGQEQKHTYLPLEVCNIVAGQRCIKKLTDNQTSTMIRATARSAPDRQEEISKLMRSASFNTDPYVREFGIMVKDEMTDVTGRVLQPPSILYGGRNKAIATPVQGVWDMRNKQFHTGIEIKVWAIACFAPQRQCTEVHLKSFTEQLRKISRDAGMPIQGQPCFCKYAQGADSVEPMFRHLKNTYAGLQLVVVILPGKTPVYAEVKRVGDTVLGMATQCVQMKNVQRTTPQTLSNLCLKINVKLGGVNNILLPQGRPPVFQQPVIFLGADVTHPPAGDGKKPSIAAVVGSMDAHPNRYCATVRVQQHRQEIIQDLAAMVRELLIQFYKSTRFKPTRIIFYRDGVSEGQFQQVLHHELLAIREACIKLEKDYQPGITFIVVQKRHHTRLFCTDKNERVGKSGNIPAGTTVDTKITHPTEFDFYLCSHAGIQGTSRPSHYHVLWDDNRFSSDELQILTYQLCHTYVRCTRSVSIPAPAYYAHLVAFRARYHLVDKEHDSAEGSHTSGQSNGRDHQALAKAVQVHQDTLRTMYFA

A word on the Kd: it is the constant that tells how readily two partners part at equilibrium. As usually defined, the IC50 is the concentration at which inhibition is half-maximal. One may read the inhibition as the relative decrease from the control value, in per cent. A higher inhibition goes with a strong effect. On to `NC[C@@H]1O[C@H](O[C@H]2[C@@H](O)[C@H](O[C@@H]3[C@@H](O)[C@H](N)C[C@H](N)[C@H]3O[C@H]3O[C@H](CN)[C@@H](O)[C@H](O)[C@H]3N)O[C@@H]2n2cc(CCc3nc4cc(NC(=O)Nc5ccccc5)ccc4o3)nn2)[C@H](N)[C@@H](O)[C@@H]1O`, for which the Kd in assay [1] turned out to be 14 nM. The results for the IC50 in assay [2] and in [4] were 540 nM and 4170 nM, respectively. Besides, in assay [3], the inhibition amounted to 20%.
One may read the EC50 as the concentration at which the effect is half-maximal. On to `C#CCNC(=O)c1ccc(/N=N/c2ccccc2)cc1`, for which the inhibition with HeLa [5] and in the assay with HeLa [7] was 87% each time. The compound further gave an EC50 in assay [6] of 2000 nM.
On to `CN1CCN(c2ccc(-c3ccc4nc(-c5cc(C(C)(C)C)c(OCCCC(=O)NCCCN=[N+]=[N-])c(C(C)(C)C)c5)[nH]c4c3)cc2)CC1`, for which the Kd was determined as 30000 nM in assay [8] and 85 nM in [9]. Further, the IC50 in assay [10] is 10000 nM; in [11], 50 nM and 200 nM.
`O=S(=O)(c1ccc2c(c1)CCCN2)N1CCC[C@H]2CCCC[C@@H]21` returned an IC50 in [12] of 600 nM. Also, the Activity in assay [13] worked out at 0.6 RLU. The same compound displayed an inhibition with Huh-7 of 47%.
Take `[N-]=[N+]=NC[C@H]1O[C@@H](O[C@H]2[C@H](O[C@H]3O[C@H](CNC(=N)N)[C@@H](O)[C@H](O)[C@H]3NC(=N)N)[C@@H](NC(=N)N)CC[C@@H]2O)[C@H](O)[C@@H]1O[C@H]1O[C@@H](CNC(=N)N)C[C@H](O)[C@H]1NC(=N)N`: the Kd in assay [14] was determined as 417 nM. Also, the values for the inhibition with HeLa [15] and in the assay on HeLa [16] were 50% and 30%, respectively.
On to `CNC(=O)c1cc(Oc2ccc(NC(=O)Nc3ccc(Cl)c(C(F)(F)F)c3)c(F)c2)ccn1` [REGORAFENIB], for which, in assay [17], the Kd stood at 730 nM. The compound further came in with an inhibition in assay [18] of 25%.
Turning to `O=C1c2c(O)ccc(O)c2C(=O)c2c(NCCNCCO)ccc(NCCNCCO)c21` [MITOXANTRONE], the dissociation constant (Kd) amounted to 33 nM in assay [19] and 46 nM in assay [21]. In assay [20], this compound displayed an IC50 of 3000 nM.
In the case of `NC[C@@H]1O[C@H](O[C@H]2[C@@H](O)[C@H](O[C@@H]3[C@@H](O)[C@H](N)C[C@H](N)[C@H]3O[C@H]3O[C@H](CN)[C@@H](O)[C@H](O)[C@H]3N)O[C@@H]2CSCCNC(=O)CCCCCn2cc(Oc3ccc4c(c3)C(=O)N(O)C(=O)C4)nn2)[C@H](N)[C@@H](O)[C@@H]1O`, the inhibition in assay [22] turned out to be 90%.
`O=C(Nc1ccc2ccccc2c1)c1ccc(Cl)cc1Cl` returned an IC50 in [12] of 3000 nM. In addition, in assay [13], the Activity was found to be 7.73 RLU. This compound yielded an inhibition in the assay on Huh-7 of 48%.
On to `CN(C)CCN1C(=O)c2cccc3cc(N)cc(c23)C1=O` [AMONAFIDE], for which the Activity in assay [23] is 0.11 RLU. Also, 3000 nM corresponded to half-maximal inhibition in assay [24] (IC50).
Take `NC(=O)C1=Cc2ccccc2C/C1=N/CC(=S)Nc1ccccc1`: the Kd in assay [25] and in [26] was 3700 nM throughout.
Take `CN1CCN(c2ccc3nc(-c4cc(C(C)(C)C)c(OCCCC(=O)NCCCN=[N+]=[N-])c(C(C)(C)C)c4)[nH]c3c2)CC1`: the inhibition with HeLa [27] came out at 90%.
For `O=C(c1ccccc1)c1c2c3c(cccc3c3ccccc13)C(=O)C=C2`, in the assay with MCF7, the inhibition turned out to be 30%.
Take `CN(c1ccccc1)C1c2ccccc2N=C(NCCCNCCCCNCCCN)C1(C)C` (centres undefined): it took 1060 nM to reach half-maximal inhibition in assay [28] (IC50).
For the compound `CCn1cc(C(=O)O)c(=O)c2cc(F)c(N3CCNCC3)nc21` [ENOXACIN], in assay [29], half-maximal inhibition (IC50) required 30000 nM.
In the case of `CC(=O)Nc1csc(-c2cccc(NC(=O)CCc3cn([C@H]4O[C@@H](O[C@@H]5[C@@H](O)[C@H](N)C[C@H](N)[C@H]5O[C@H]5O[C@H](CN)[C@@H](O)[C@H](O)[C@H]5N)[C@H](O)[C@@H]4O[C@H]4O[C@@H](CN)[C@@H](O)[C@H](O)[C@H]4N)nn3)c2)n1`, in [1], the Kd was determined as 14 nM. In addition, the results for the IC50 in assay [2] and in assay [4] were 5130 nM and 2430 nM, respectively. This compound also registered an inhibition in [3] of 20%.
On to `CC(NS(=O)(=O)c1ccc2nc(O)c(O)nc2c1)C(=O)O` (centres undefined), for which the Kd at Protein argonaute-2 is 126000 nM.
